Test results from patent US20080248511A1, “METHODS TO QUENCH LIGHT FROM OPTICAL REACTIONS” (priority 2007, published 2008).
Where two headings read alike, the source gives them in different places.

Target: T1, Renilla luciferase (Renilla reniformis, UniProt P27652)
T1 sequence (P27652 1-311): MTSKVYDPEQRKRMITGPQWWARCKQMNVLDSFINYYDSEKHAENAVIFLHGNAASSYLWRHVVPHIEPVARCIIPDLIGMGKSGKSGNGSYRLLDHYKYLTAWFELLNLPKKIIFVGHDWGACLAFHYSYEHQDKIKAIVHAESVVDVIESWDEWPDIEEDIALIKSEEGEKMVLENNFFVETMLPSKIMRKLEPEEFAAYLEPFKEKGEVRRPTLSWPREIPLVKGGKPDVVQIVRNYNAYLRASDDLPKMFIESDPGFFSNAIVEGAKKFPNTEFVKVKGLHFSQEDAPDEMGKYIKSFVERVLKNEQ
Experiment: Detergent titration with Tergitol NP-9, digitonin or no lysing agent, Renilla luciferase (Example 4)
Format: biochemical
Conditions: for remaining activity at 0.0005 % / remaining activity at 0.005 % / remaining activity at 0.05 %: read-out: Relative Renilla Luc Intensity
Method: Renilla luciferase-mediated luminescence was measured from samples containing 9.6 mM phosphate buffer pH 6.8, 2.7 mM KCl, 137 mM NaCl (in PBS), 0.1% gelatin, 75 nM coelentrazine (Promega) and 10.2 ng/ml Renilla luciferase. Reactions contained either no lysing agent, 0.5% Tergitol NP-9 or 20 μg/ml digitonin. The detergents to be tested were titrated to 0.05%, 0.005% or 0.0005% in the reactions prior to the addition of the Renilla luciferase. Renilla luciferase-mediated luminescence was measured as described herein.

CCCCCCCCCCCC[N+](C)(C)Cc1ccccc1.[Br-] [Benzyldimethyldodecylammonium bromide]
Selective Inhibition (Ff Luc Inh/Ren Luc Inh) (0.0005% detergent, Dig): 1.8 | remaining activity at 0.0005 % (0.0005% detergent, Dig): 61% | Selective Inhibition (Ff Luc Inh/Ren Luc Inh) (0.0005% detergent, Terg): 1.1 | remaining activity at 0.0005 % (0.0005% detergent, Terg): 90% | Selective Inhibition (Ff Luc Inh/Ren Luc Inh) (0.0005% detergent, Water): 2.2 | remaining activity at 0.0005 % (0.0005% detergent, Water): 54% | Selective Inhibition (Ff Luc Inh/Ren Luc Inh) (0.0050% detergent, Dig): 29 | remaining activity at 0.005 % (0.0050% detergent, Dig): 5% | Selective Inhibition (Ff Luc Inh/Ren Luc Inh) (0.0050% detergent, Terg): 1.7 | remaining activity at 0.005 % (0.0050% detergent, Terg): 58% | Selective Inhibition (Ff Luc Inh/Ren Luc Inh) (0.0050% detergent, Water): 36 | remaining activity at 0.005 % (0.0050% detergent, Water): 4% | remaining activity at 0.05 % (0.0500% (w:v) detergent, Terg (0.5% Tergitol NP-9)): 2% | Selective Inhibition (Ff Luc Inh/Ren Luc Inh) (0.0500% detergent, Dig): 1575 | remaining activity at 0.05 % (0.0500% detergent, Dig (20 μg/ml digitonin)): 0.02% | Selective Inhibition (Ff Luc Inh/Ren Luc Inh) (0.0500% detergent, Terg): 21 | Selective Inhibition (Ff Luc Inh/Ren Luc Inh) (0.0500% detergent, Water): 3627 | remaining activity at 0.05 % (0.0500% detergent, Water (no lysing agent)): 0.02%
